What is called solubility is the dissolved amount per volume that the medium holds.

≈ marks a conversion by molar mass, not a printed value. Where a SMILES comes first, the peptide text is derived from it.

This is an account of results in patent US10981940B2, “Trityl protecting agent” (SEKISUI MEDICAL CO., LTD., priority 2016, dated 2021).

This data set can be described thus: Solubility in CPME (cyclopentyl methyl ether), dissolved to saturation at 25° C. The class given is physicochemical. Conditions: dissolved to saturation in CPME (cyclopentyl methyl ether) at 25° C. As for the experimental part:
Peptide used as a model: H-Phe-Leu-Gly-OH
H-Phe-Leu-Gly-OH and H-Phe-Leu-Gly-O-(TIPS2-4,4′-diClTrt) were synthesized, and the respective compounds were dissolved to saturation in CPME (cyclopentyl methyl ether) at 25° C. Thus, the solubilities were measured.

Take `CC(C)C[C@H](NC(=O)[C@@H](N)Cc1ccccc1)C(=O)NCC(=O)OC(c1ccc(Cl)cc1)(c1ccc(Cl)cc1)c1cc(OCCCCCCCCCCCO[Si](C(C)C)(C(C)C)C(C)C)cc(OCCCCCCCCCCCO[Si](C(C)C)(C(C)C)C(C)C)c1` [H-Phe-Leu-Gly-O-(TIPS2-4,4′-diClTrt)]: the solubility was at least 1030 mM.
Under `CC(C)C[C@H](NC(=O)[C@@H](N)Cc1ccccc1)C(=O)NCC(=O)O` [H-Phe-Leu-Gly-OH] (H-Phe-Leu-Gly-OH) stands 0.9 mM (≈ 0.302 mg/mL).
